Laboratory results: patent publication US9493542B2, “Methods of using ERBB2 conjugate peptides” (Augusta University Research Institute, Inc., priority 2013, dated 2016)

Columns and labels:
[1] = system: HSP90; experiment: HSP90 inhibition by 17-AAG: ErbB2 and Erbin levels and ErbB2 complex; type: cell-based
From the text: Erbin regulation of ErbB2 stability was investigated. […] Intriguingly, the effect of 17-AAG could not be blocked by Erbin overexpression (data not shown), indicating Erbin acts upstream or at level of HSP90. ErbB2, HSP90, and Erbin can form a ternary complex necessary for ErbB2 stability. HSP90 as well as Erbin was detectable in the complex of ErbB2 and Erbin interacted HSP90 (data not shown). […] Conversely, Erbin knockdown inhibited the HSP90-ErbB2 interaction (data not shown).

[2] = molecular target: T1, Erbin-ErbB2 interaction (Homo sapiens, UniProt Q96RT1); experiment: Co-immunoprecipitation of Flag-ErbB2 with Myc-Erbin from lysates incubated with peptide; type: binding; settings: in vitro; lysates with Flag-ErbB2 or Myc-Erbin, anti-Myc precipitation; compared to control peptide
T1 construct: HEK293 cells were transfected with Flag-ErbB2 alone or together with full length Erbin; expressed in transfected cells; host or cells: Transfected cells
From the text: FIGS. 5A-5H show the requirement of the Erbin-ErbB2 interaction for ErbB2 stabilization and autophosphorylation and ErbB2-dependent proliferation of breast cancer cells. (A)-(B) Quantitative analysis of pErbB2 and ErbB2 levels in western blots showing decreased ErbB2 expression and autophosphorylation by Erbin-PDZ domain. HEK293 cells were transfected with Flag-ErbB2 with increasing doses of Myc-Erbin-PDZ. Cell lysates were blotted with antibodies against ErbB2, pErbB2 and Myc. (C) Quantitative analysis of western blot data showing the disruption of the Erbin-ErbB2 interaction by B2tail. Lysates of transfected cells expressing Flag-ErbB2 or Myc-Erbin were incubated with control peptide (Ctrl) or B2tail. The Erbin complex was precipitated using anti-Myc antibody and probed for ErbB2. n=3, *P<0.05, compared to Ctrl. […] Cells were treated with 20 μM TAT-Ctrl or TAT-B2tail peptide for 24 hours and analyzed by MTS assay. […]
For immunoprecipitation, cells were lysed in lysis buffer (50 mM Tris-HCl, pH 7.4, 150 mM NaCl, 1% NP-40, 0.5% Triton-X-100, 1 mM PMSF, 1 mM EDTA, 5 mM NaF, 2 mM Na3VO4, and protease inhibitor cocktails). […] Immunoreactive bands were visualized using enhanced chemiluminescence (Pierce), scanned with an Epson 1680 scanner, and analyzed with Image J. […]

[3] = system: ErbB2; experiment: ErbB2 stability and pErbB2 in SKBR3 cells after cycloheximide (Western blot); type: cell-based; parameters: dose or concentration left out as unconfirmed; settings: TAT-B2tail for 1 hour prior to CHX, compared to TAT-Ctrl
[4] = system: SKBR3 cells; experiment: MTS proliferation assay, SKBR3 cells; type: cell-based; settings: 20 μM peptide, 24 hours
From the text: (§1) FIGS. 5A-5H show the requirement of the Erbin-ErbB2 interaction for ErbB2 stabilization and autophosphorylation and ErbB2-dependent proliferation of breast cancer cells. (A)-(B) Quantitative analysis of pErbB2 and ErbB2 levels in western blots showing decreased ErbB2 expression and autophosphorylation by Erbin-PDZ domain. HEK293 cells were transfected with Flag-ErbB2 with increasing doses of Myc-Erbin-PDZ. Cell lysates were blotted with antibodies against ErbB2, pErbB2 and Myc. (C) Quantitative analysis of western blot data showing the disruption of the Erbin-ErbB2 interaction by B2tail. Lysates of transfected cells expressing Flag-ErbB2 or Myc-Erbin were incubated with control peptide (Ctrl) or B2tail. The Erbin complex was precipitated using anti-Myc antibody and probed for ErbB2. n=3, *P<0.05, compared to Ctrl. […] SKBR3 cells were incubated with 20 μM TAT-Ctrl or TAT-B2tail, for 1 hour prior to analysis of ErbB2 stability. n=3, *P<0.05, **P<0.01, compared to TAT-Ctrl. […] Cells were treated with 20 μM TAT-Ctrl or TAT-B2tail peptide for 24 hours and analyzed by MTS assay. […] (F) PDZ deletion inhibited tumorigenesis in MMTV-neu mice on incipient congenic FVB background. […]
(§2) Cell proliferation was measured by MTS assay, as described previously (Zhang, S., et al., Nature medicine, 17, 461-469, 2011). […] Optical density was measured at wavelength of 490 nm.

[5] = system: BT474 cells; experiment: MTS proliferation assay, BT474 cells; type: cell-based, human; settings: 20 μM peptide, 24 hours
From the text: as §1, §2

[6] = system: Human breast BT474 cancer cells; experiment: BT474 breast tumor growth in fat pads of nude mice, intratumoral peptide injection; type: in vivo; settings: 25 μl 5 mM peptide injected into tumors twice a week, one month, versus TAT-Ctrl
Method: FIG. 7 is a microscopy image of a breast cancer tumor treated with Tat-ErbB2tail. TAT-ErbB2tail peptide inhibits breast tumor growth in nude mice. Human breast BT474 cancer cells (100 μl, 3.0×10^5 cells in 50% Matri-gel) were injected into fat pads of both sides of female mice. Resulting tumors were injected 2 weeks later with control (TAT-ctrl, left) or B2tail (TAT-B2tail, right) peptide (25 u.l, 5 mM), twice a week. Shown were representative images before injection (A, A′) and one month after injection (B, B′).
The results identify the ErbB2-Erbin interaction as a therapeutic target for fighting ErbB2-positive breast cancers. To test this, B2tail was tested for the ability to inhibit tumor growth in mice. Human breast BT474 cancer cells (100 ul, 3.0×10^5 cells in 50% Matri-gel) were injected into fat pads of both sides of virgin, female mice. Resulting tumors were injected 2 weeks later with control (TAT-Ctrl) or B2tail (TAT-B2tail) peptide (25 μl, 5 mM), twice a week[[.]].

[7] = molecular target: T2, ErbB2 (Homo sapiens, UniProt P04626); experiment: Coexpression of Erbin PDZ domain with Flag-ErbB2 in HEK293 cells (Western blot); type: cell-based; settings: Flag-ErbB2 with increasing doses of Myc-Erbin-PDZ
T2 construct: expressed in transfected cells; host or cells: HEK293
From the text: as §1, with “background. Erbin^ΔC/ΔC mice were backcrossed for 5 generations with FVB wild types and then crossed with FVB-congenic MMTV-neu.” for “background.”

[8] = 17-AAG treatment (data not shown)

T1 sequence (Q96RT1 whole entry): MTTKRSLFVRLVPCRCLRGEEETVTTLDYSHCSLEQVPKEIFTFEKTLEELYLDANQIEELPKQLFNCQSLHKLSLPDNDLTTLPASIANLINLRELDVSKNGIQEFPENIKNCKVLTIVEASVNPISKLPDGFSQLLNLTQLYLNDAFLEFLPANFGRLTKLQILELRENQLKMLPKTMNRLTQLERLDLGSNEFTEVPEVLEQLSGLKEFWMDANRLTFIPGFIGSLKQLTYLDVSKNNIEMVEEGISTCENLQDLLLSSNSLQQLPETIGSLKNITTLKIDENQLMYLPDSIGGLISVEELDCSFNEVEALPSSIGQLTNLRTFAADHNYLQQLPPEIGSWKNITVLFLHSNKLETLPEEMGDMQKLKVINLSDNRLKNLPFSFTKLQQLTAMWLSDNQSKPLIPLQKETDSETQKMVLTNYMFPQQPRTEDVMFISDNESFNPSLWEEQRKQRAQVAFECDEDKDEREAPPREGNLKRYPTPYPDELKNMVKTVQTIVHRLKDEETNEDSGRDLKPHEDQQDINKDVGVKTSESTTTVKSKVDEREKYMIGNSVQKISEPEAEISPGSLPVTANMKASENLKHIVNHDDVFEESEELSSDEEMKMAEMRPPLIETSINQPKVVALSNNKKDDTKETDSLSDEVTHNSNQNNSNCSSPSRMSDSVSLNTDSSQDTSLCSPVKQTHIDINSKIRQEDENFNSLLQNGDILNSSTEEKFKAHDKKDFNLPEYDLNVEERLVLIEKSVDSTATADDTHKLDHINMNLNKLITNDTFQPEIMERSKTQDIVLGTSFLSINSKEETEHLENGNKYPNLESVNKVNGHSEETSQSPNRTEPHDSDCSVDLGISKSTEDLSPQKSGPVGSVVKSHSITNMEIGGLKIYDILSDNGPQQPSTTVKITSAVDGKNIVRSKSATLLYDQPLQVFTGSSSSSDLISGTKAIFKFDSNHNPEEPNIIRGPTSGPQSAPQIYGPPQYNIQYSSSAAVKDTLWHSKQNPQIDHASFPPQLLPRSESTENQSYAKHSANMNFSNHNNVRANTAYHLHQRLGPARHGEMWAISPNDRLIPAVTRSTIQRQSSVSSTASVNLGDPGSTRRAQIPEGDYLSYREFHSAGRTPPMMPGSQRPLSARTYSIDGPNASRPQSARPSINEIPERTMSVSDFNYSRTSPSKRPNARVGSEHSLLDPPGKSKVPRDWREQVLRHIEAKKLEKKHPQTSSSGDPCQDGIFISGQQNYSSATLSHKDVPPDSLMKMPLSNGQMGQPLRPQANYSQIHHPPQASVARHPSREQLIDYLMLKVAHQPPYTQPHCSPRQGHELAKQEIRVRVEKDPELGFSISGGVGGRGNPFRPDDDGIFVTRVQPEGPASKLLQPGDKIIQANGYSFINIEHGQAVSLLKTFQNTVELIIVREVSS

Molecule: C=CCNC1=C2C[C@@H](C)C[C@H](OC)[C@H](O)[C@@H](C)/C=C(\C)[C@H](OC(N)=O)[C@@H](OC)/C=C\C=C(/C)C(=O)NC(=CC1=O)C2=O [17-AAG]
- ErbB2 degradation [1, 8]: resulted in ErbB2 degradation
- Erbin levels [1, 8]: no effect
- ErbB2 level after brief treatment ([1]; 17-AAG, 1 hour): without altering ErbB2 level
- amount of Erbin in the ErbB2 complex ([1]; 17-AAG, 1 hour): reduced

Molecule: PTAENPEYLGLDVPV [B2tail]
- disruption of the Erbin-ErbB2 interaction [2]: able to disrupt the Erbin-ErbB2 interaction

Molecule: YGRKKRRQRRR-G-PTAENPEYLGLDVPV [TAT-B2tail]
- ErbB2 reduction (stability) after CHX [3]: ErbB2 reduction was faster
- pErbB2 levels [3]: pErbB2 levels were reduced
- decrease of proliferation [4]: about 40%
- decrease of proliferation [5]: ~35%
- size of breast tumors [6]: appeared to decrease

B1: PDZ domain of Erbin: Erbin PDZ domain, starts at amino acid 1318 of Erbin, expressed as Myc-tagged construct in HEK293 cells (protein)
chain: AKQEIRVRVEKDPELGFSISGGVGGRGNPFRPDDDGIFVTRVQPEGPASKLLQPGDKIIQANGYSFINIEHGQAVSLLKTFQNTVELIIVREV
modifications: Myc tag; PDZ domain
notes: Erbin PDZ domain, starts at amino acid 1318 of Erbin, expressed as Myc-tagged construct in HEK293 cells
- ErbB2 phosphorylation (pErbB2) [7]: reduced
- levels of ErbB2 [7]: reduced
